Assay results as given in patent US20110288154A1, “RNA Interference Mediated Inhibition of Epithelial Sodium Channel (ENaC) Gene Expression Using Short Interfering Nucleic Acid (siNA)” (MERCK & CO., INC., priority 2008, published 2011).
[invAb] = inverted abasic unit; m = 2'-O-methyl; r = 2'-OH (RNA); f = 2'-fluoro

Key:
mSCNN1A mRNA = assay: Screening of ENaCα siNAs in mouse NIH 3T3 cells (quantitative RT-PCR); format: cell-based; set-up: Percent Reduction of the mSCNN1A mRNA relative to a non-targeting control siNA / Mouse % KD (efficacy of ENaCα mRNA knockdown): concentration or dose not given beside the values; settings: mouse NIH 3T3 cells, n = 3; for Mean (mSCNN1A expression normalized to the level of m36B4) / Percent Reduction of the mSCNN1A mRNA relative to a non-targeting control siNA / Avg 36B4 Expression: 24 hours post-transfection; for Avg ENaCα Expression (mSCNN1A): harvested 24 hours post-transfection; for Avg 36B4 Expression: housekeeping gene used for normalisation
Protocol: siNA constructs (Table 1b) may be tested for efficacy in reducing ENaC RNA expression in, for example, A549 human lung carcinoma cells. A549 (human; ATCC cat# CCL-185) cells were cultured at 37° C. in the presence of 5% CO2 and grown in Ham's F12K medium with 2 mM L-glutamine adjusted to contain 1.5 g/L sodium bicarbonate and supplemented with fetal bovine serum at a final concentration of 10% and 100 U/mL penicillin. The A549 cells were plated approximately 24 hours before transfection in 96-well plates at 7,500 cells/well, 100 μl/well. After 24 hours complexes containing siNA and Lipofectamine 2000 (Invitrogen) were created as follows: a solution of Lipofectamine 2000 in OPTI-MEM was prepared containing Lipofectamine 2000 at a final concentration of 14 μg/ml. In parallel, solutions of the siNAs were prepared in OPTI-MEM at a final concentration of 150 nM. After both solutions were incubated at 20° C. for 20 minutes an equal volume of the siNA solutions and the Lipofectamine 2000 solution were added together for each of the siNAs. The resultant solution has the siNAs at a final concentration of 75 nM and Lipofectamine 2000 at a final concentration of 7 μg/ml. This solution was incubated at 20° C. for 20 minutes. After incubation 50 μl of the solution were added to each of the wells (in triplicate). The final concentration of siNA in each well was 25 nM and the final concentration of Lipofectamine 2000 in each well was 2.33 μg/ml. The plates were incubated for 48 hours with no change of media before harvesting. Dose response curves were determined in a similar manner with each concentration being done in triplicate and maintaining a constant amount of Lipofectamine 2000 in each transfection.
(§1) A series of probes and primers were used to detect the various mRNA transcripts of the genes of ENaCa and GAPDH in mouse, rat, and human cell lines. The assays were performed on an ABI 7500 instrument, according to the manufacturer's instructions. Within each experiment, the baseline was set in the exponential phase of the amplification curve, and based on the intersection point of the baselines with the amplification curve, a Ct value was assigned by the instrument. This Ct value was then assigned a QTY value based on the Standard Curve. The standard curve in the various experiments herein used 1 ng to 300 ng of RNA extracted from the same cell line used for the experimental transfections.
(§2) All IC50 values were calculated from the data using GraphPad Prizm software, specifically a sigmoidal, variable slope curve for simple ligand binding. Also, unless otherwise indicated, all calculations of the efficacy and potency (e.g., % knockdown) of the siNAs were done relative to a non-targeting control siNA. If reported, P-values were computed using The Students t-test, including the Welch Correction for unequal variances.
(§3) In all of the calculations of the % knock-down of mRNA, the calculation was made relative to the normalized level of expression of the gene of interest in the samples treated with the non-targeting control (NTC) unless otherwise indicated. The gene of interest expression level was divided by the level of expression of GAPDH or 36B4 (depending on the species) in each sample. The three replicates for each condition in each experiment were averaged and the standard deviation of those samples was calculated. The following formula was then used to calculate the % of knock-down of the gene of interest:
(§4) The ENaCα siNAs were designed and synthesized as described previously. The siNAs were screened in three cell lines. Human A549 cells, mouse NIH 3T3 and Rat H-4-II-E cells. The data from the screen of ENaCa siNAs in all three species is shown in Tables 3a, 3b, 4a, 4b, 5a, and 5b and a summary of the data for certain siNA molecules is presented in Table 6. Each screen was performed at 24 hrs. The decision to use this time point was based upon the degree of knockdown of the mRNA seen at that time point.

rSCNN1A (r ENaCα) mRNA = assay: Screening of ENaCα siNAs in Rat H-4-II-E cells (quantitative RT-PCR); format: cell-based; set-up: Percent Reduction of the r ENaCα mRNA relative to a non-targeting control siNA (NTCs) / Rat % KD (efficacy of ENaCα mRNA knockdown): concentration or dose not given beside the values; settings: Rat H-4-II-E cells, n = 3; for Mean (rSCNN1A expression normalized to the level of rGAPDH) / Percent Reduction of the r ENaCα mRNA relative to a non-targeting control siNA (NTCs) / Avg GAPDH Expression (rGAPDH): 24 hours post-transfection; for Avg ENaCα Expression (rSCNN1A): harvested 24 hours post-transfection; for Avg GAPDH Expression (rGAPDH): housekeeping gene used for normalisation
Protocol: as §1, §2, §3, §4

B uccuGuccAAccuGGGcAG TTB / CUGcccAGGuuGGAcAGGAUU (sense UCCUGUCCAACCUGGGCAGTT; antisense CUGCCCAGGUUGGACAGGAUU; siRNA; sense: DNA at AGT, 2'-fluoro at CU, [invAb] at 5' end, 3' end, backbone not given here; antisense: sugars from the 5' end rrrfffmmmffmmmfmmmmmm, backbone not given here) [Site 1739]
Mean (mSCNN1A expression normalized to the level of m36B4) (mSCNN1A mRNA): 0.13 | Percent Reduction of the mSCNN1A mRNA relative to a non-targeting control siNA (mSCNN1A mRNA): 7.3% | Avg ENaCα Expression (mSCNN1A) (mSCNN1A mRNA): 2.87 | Avg 36B4 Expression (mSCNN1A mRNA): 22.65 | Mean (rSCNN1A expression normalized to the level of rGAPDH) (rSCNN1A (r ENaCα) mRNA): 1.00 | Percent Reduction of the r ENaCα mRNA relative to a non-targeting control siNA (NTCs) (rSCNN1A (r ENaCα) mRNA): −8.7% | Avg ENaCα Expression (rSCNN1A) (rSCNN1A (r ENaCα) mRNA): 32.26 | Avg GAPDH Expression (rGAPDH) (rSCNN1A (r ENaCα) mRNA): 35.80

B GccAuccGccuGGuGuGcu TTB / AGCAcAccAGGcGGAuGGcUU (sense GCCAUCCGCCUGGUGUGCUTT; antisense AGCACACCAGGCGGAUGGCUU; siRNA; sense: DNA at AGT, 2'-fluoro at CU, [invAb] at 5' end, 3' end, backbone not given here; antisense: sugars from the 5' end rrrmfmffmmmfmmrfmmfmm, backbone not given here) [Site 310]
Mean (mSCNN1A expression normalized to the level of m36B4) (mSCNN1A mRNA): 0.20 | Percent Reduction of the mSCNN1A mRNA relative to a non-targeting control siNA (mSCNN1A mRNA): 16.6% | Avg ENaCα Expression (mSCNN1A) (mSCNN1A mRNA): 3.19 | Avg 36B4 Expression (mSCNN1A mRNA): 16.02 | Mean (rSCNN1A expression normalized to the level of rGAPDH) (rSCNN1A (r ENaCα) mRNA): 0.92 | Percent Reduction of the r ENaCα mRNA relative to a non-targeting control siNA (NTCs) (rSCNN1A (r ENaCα) mRNA): 28.3% | Avg ENaCα Expression (rSCNN1A) (rSCNN1A (r ENaCα) mRNA): 18.39 | Avg GAPDH Expression (rGAPDH) (rSCNN1A (r ENaCα) mRNA): 20.12

B cAcAAccGcAuGAAGAcGG TTB / CCGucuucAuGcGGuuGuGUU (chain 1 CACAACCGCAUGAAGACGGTT; chain 2 CCGUCUUCAUGCGGUUGUGUU; siRNA; chain 1: DNA at AGT, 2'-fluoro at CU, [invAb] at 5' end, 3' end, backbone not given here; chain 2: sugars from the 5' end rrrfffffmfmfmmffmfmmm, backbone not given here) [Site 334]
Mean (mSCNN1A expression normalized to the level of m36B4) (mSCNN1A mRNA): 0.21 | Percent Reduction of the mSCNN1A mRNA relative to a non-targeting control siNA (mSCNN1A mRNA): 12.3% | Avg ENaCα Expression (mSCNN1A) (mSCNN1A mRNA): 3.57 | Avg 36B4 Expression (mSCNN1A mRNA): 16.98 | Mean (rSCNN1A expression normalized to the level of rGAPDH) (rSCNN1A (r ENaCα) mRNA): 0.85 | Percent Reduction of the r ENaCα mRNA relative to a non-targeting control siNA (NTCs) (rSCNN1A (r ENaCα) mRNA): 33.7% | Avg ENaCα Expression (rSCNN1A) (rSCNN1A (r ENaCα) mRNA): 16.10 | Avg GAPDH Expression (rGAPDH) (rSCNN1A (r ENaCα) mRNA): 19.11

B cAcuccuGcuuccAGGAGA TTB / UCUccuGGAAGcAGGAGuGUU (sense CACUCCUGCUUCCAGGAGATT; antisense UCUCCUGGAAGCAGGAGUGUU; siRNA; sense: DNA at AGT, 2'-fluoro at CU, [invAb] at 5' end, 3' end, backbone not given here; antisense: sugars from the 5' end rrrfffmmmmmfmmmmmfmmm, backbone not given here) [Site 1351]
Mean (mSCNN1A expression normalized to the level of m36B4) (mSCNN1A mRNA): 0.22 | Percent Reduction of the mSCNN1A mRNA relative to a non-targeting control siNA (mSCNN1A mRNA): 9.6% | Avg ENaCα Expression (mSCNN1A) (mSCNN1A mRNA): 2.56 | Avg 36B4 Expression (mSCNN1A mRNA): 11.91 | Mean (rSCNN1A expression normalized to the level of rGAPDH) (rSCNN1A (r ENaCα) mRNA): 0.72 | Percent Reduction of the r ENaCα mRNA relative to a non-targeting control siNA (NTCs) (rSCNN1A (r ENaCα) mRNA): 43.7% | Avg ENaCα Expression (rSCNN1A) (rSCNN1A (r ENaCα) mRNA): 18.06 | Avg GAPDH Expression (rGAPDH) (rSCNN1A (r ENaCα) mRNA): 24.87
